Data as given in the NIST ThermoML archive (doi:10.1021/je500918t).
Numbers after ± are expanded uncertainties.

Assays:
[1] = Crystal; DTA
[2] = Molar enthalpy of transition or fusion; settings: Crystal; DSC

Normal melting temperature [1] [°C] | Molar enthalpy of transition or fusion [2] [kcal/mol] | Compound
171.5 ± 0.5 | 7.1 ± 0.287 | CN(C)S(=O)(=O)c1ccc(N)cc1 [4-amino-N,N-dimethylbenzenesulfonamide]
131.0 ± 0.5 | 6.72 ± 0.287 | O=S(=O)(Nc1ncccc1Cl)c1ccccc1 [N-(3-chloro-2-pyridinyl)benzenesulfonamide]
109.1 ± 0.5 | 4.09 ± 0.263 | CNS(=O)(=O)c1ccc(N)cc1 [4-amino-N-methylbenzenesulfonamide]
154.8 ± 0.5 | 5.38 ± 0.263 | CCOC(=O)c1ccc(NS(=O)(=O)c2ccccc2)nc1 [ethyl 6-(phenylsulfonamido)nicotinate]
238.0 ± 0.5 | 9.89 ± 0.311 | CC(=O)Nc1ccncc1NS(=O)(=O)c1ccc([N+](=O)[O-])cc1 [N-[3-[[(4-nitrophenyl)sulfonyl]amino]-4-pyridinyl]-acetamide]
172.8 ± 0.5 | 9.87 ± 0.311 | Nc1ccc(S(=O)(=O)Nc2cc(Cl)ccc2Cl)cc1 [4-amino-N-(2,5-dichlorophenyl)benzenesulfonamide]
204.5 ± 0.5 | 10.9 ± 0.311 | Cc1ccc(NS(=O)(=O)c2ccc(N)cc2)cc1Cl [4-amino-N-(3-chloro-4-methylphenyl)benzenesulfonamide]
173.4 ± 0.5 | 8.53 ± 0.287 | Cc1cc(N)ccc1S(=O)(=O)Nc1ccc(Cl)cc1 [4-amino-N-(4-chlorophenyl)-2-methylbenzenesulfonamide]
194.2 ± 0.5 | 9.23 ± 0.311 | COc1ccc(NS(=O)(=O)c2ccc(N)cc2)cc1 [4-amino-N-(4-methoxyphenyl)benzenesulfonamide]
98.7 ± 0.5 | 5.33 ± 0.263 | O=[N+]([O-])c1ccccc1NS(=O)(=O)c1ccccc1 [N-(2-nitrophenyl)benzenesulfonamide]
105.7 ± 0.5 | 4.64 ± 0.263 | CCN(CC)S(=O)(=O)c1ccc(N)cc1 [4-amino-N,N-diethylbenzenesulfonamide]
163.1 ± 0.5 | 8.68 ± 0.287 | CCc1ccc(NS(=O)(=O)c2ccc(N)cc2)cc1 [4-amino-N-(4-ethylphenyl)benzenesulfonamide]
121.5 ± 0.5 | 6.17 ± 0.263 | O=S(=O)(Nc1ccc(Cl)cc1)c1ccccc1 [N-(4-chlorophenyl)benzenesulfonamide]
110.4 ± 0.5 | 5.62 ± 0.263 | O=S(=O)(Nc1ccccc1)c1ccccc1 [N-phenylbenzenesulfonamide]
194.8 ± 0.5 | 5.69 ± 0.263 | Nc1ccc(S(=O)(=O)Nc2ccc(Cl)cc2)cc1 [4-amino-N-(4-chlorophenyl)benzenesulfonamide]
188 ± 0.5 | 9.46 ± 0.311 | Nc1ccc(S(=O)(=O)Nc2ccc([N+](=O)[O-])cc2Br)cc1 [4-amino-N-(2-bromo-4-nitrophenyl)benzenesulfonamide]
188.1 ± 0.5 | 9.49 ± 0.311 | Nc1ccc(S(=O)(=O)Nc2cc(Cl)c(Cl)cc2Cl)cc1 [4-amino-N-(2,4,5-trichlorophenyl)benzenesulfonamide]
181.2 ± 0.5 | 9.78 ± 0.311 | Nc1ccc(S(=O)(=O)Nc2cccc(Cl)c2Cl)cc1 [4-amino-N-(2,3-dichlorophenyl)benzenesulfonamide]
155.7 ± 0.5 | 7.58 ± 0.287 | Cc1ccc(NS(=O)(=O)c2ccc(N)cc2)c(Cl)c1 [4-amino-N-(2-chloro-4-methylphenyl)benzenesulfonamide]
125.1 ± 0.5 | 8.01 ± 0.287 | O=S(=O)(Nc1ccccc1Cl)c1ccccc1 [N-(2-chlorophenyl)benzenesulfonamide]
195.6 ± 0.5 | 8.34 ± 0.287 | Nc1ccc(S(=O)(=O)Nc2ccc(Cl)cc2)c(Cl)c1 [4-amino-2-chloro-N-(4-chlorophenyl)benzenesulfonamide]
179.5 ± 0.5 | 8.39 ± 0.287 | Nc1ccc(S(=O)(=O)N(c2ccccc2)c2ccccc2)cc1 [4-amino-N,N-diphenylbenzenesulfonamide]
256.6 ± 0.5 | 7.6 ± 0.287 | O=[N+]([O-])c1ccc(S(=O)(=O)Nc2nccs2)cc1 [4-nitro-N-2-thiazolylbenzenesulfonamide]
178.2 ± 0.5 | 9.56 ± 0.311 | Cc1cc(N)ccc1S(=O)(=O)Nc1ccccc1[N+](=O)[O-] [4-amino-2-methyl-N-(2-nitrophenyl)benzenesulfonamide]
232 ± 0.5 | 12.3 ± 0.335 | Nc1ccc(S(=O)(=O)Nc2ccccc2Cl)c(Cl)c1 [4-amino-2-chloro-N-(2-chlorophenyl)benzenesulfonamide]
161.0 ± 0.5 | 10.9 ± 0.311 | Cc1ccc(NS(=O)(=O)c2ccc([N+](=O)[O-])cc2)nc1 [N-(5-methylpyridin-2-yl)-4-nitrobenzenesulfonamide]
149.6 ± 0.5 | 8.8 ± 0.287 | Cc1cc(Cl)ccc1NS(=O)(=O)c1ccc(N)cc1 [4-amino-N-(4-chloro-2-methylphenyl)benzenesulfonamide]
206.4 ± 0.5 | 11.3 ± 0.335 | Cc1cc(N)ccc1S(=O)(=O)Nc1ccccc1Cl [4-amino-N-(2-chlorophenyl)-2-methylbenzenesulfonamide]
114.1 ± 0.5 | 6.5 ± 0.263 | O=S(=O)(Nc1cccc(Cl)c1Cl)c1ccccc1 [N-(2,3-dichlorophenyl)benzenesulfonamide]
149.6 ± 0.5 | 8.8 ± 0.287 | Cc1ccc(Cl)cc1NS(=O)(=O)c1ccc(N)cc1 [4-amino-N-(5-chloro-2-methylphenyl)benzenesulfonamide]
